In patent US20250144094A1 (Erasca, Inc., priority 2021, published 2025) one finds IC50 data, which are given here for nine molecules.

This test deals with Recombinant human ULK1 (1-649) (Homo sapiens (Human), UniProt O75385). Put plainly: ULK1 ADP Glo kinase activity assay, new method (ULKtide peptide substrate). Particulars: 25° C., 40 minutes, read-out: ULK1 biochemical IC50. The procedure, abridged: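 Kinase activity was read as ADP production (ADP-Glo, luminescence 30 min after detection reagent) following a 40-min, 25 °C reaction of Sf9-expressed GST-ULK1 (1-649) with ULKtide substrate and ATP. Compounds ran as 12-point series starting at 10 μM; four-parameter curve fitting versus DMSO wells gave IC50.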
For orientation: In ADP-Glo the light output rises with the ADP produced.

pIC50: −log10 of the molar value.

Recombinant human ULK1 (1-649), sequence (O75385 1-649): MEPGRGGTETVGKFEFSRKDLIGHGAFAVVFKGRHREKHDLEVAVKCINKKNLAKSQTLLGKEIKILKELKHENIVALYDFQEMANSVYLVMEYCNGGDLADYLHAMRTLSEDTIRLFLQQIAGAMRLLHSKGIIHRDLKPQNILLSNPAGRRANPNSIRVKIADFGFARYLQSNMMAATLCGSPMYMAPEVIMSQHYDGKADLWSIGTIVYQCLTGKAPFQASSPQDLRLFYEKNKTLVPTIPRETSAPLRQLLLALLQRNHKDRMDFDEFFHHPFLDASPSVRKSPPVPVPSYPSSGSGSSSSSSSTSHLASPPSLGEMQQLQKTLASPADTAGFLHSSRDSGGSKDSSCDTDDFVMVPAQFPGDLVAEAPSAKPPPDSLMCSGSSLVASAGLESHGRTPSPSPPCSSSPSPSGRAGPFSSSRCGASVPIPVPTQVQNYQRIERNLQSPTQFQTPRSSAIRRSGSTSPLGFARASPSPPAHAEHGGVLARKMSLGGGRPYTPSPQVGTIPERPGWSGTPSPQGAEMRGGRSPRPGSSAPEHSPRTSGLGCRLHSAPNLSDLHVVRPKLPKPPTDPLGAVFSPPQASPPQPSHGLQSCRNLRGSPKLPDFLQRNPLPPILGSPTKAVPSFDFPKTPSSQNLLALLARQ

Take `CN1CCS(=O)(=O)c2cc(-c3nc(Nc4ccc(N5CCN(CC6COC6)CC5)cc4Cl)ncc3C(F)(F)F)sc2C1=O` [Example 217, 7-(2-((2-chloro-4-(4-(oxetan-3-ylmethyl)piperazin-1-yl)phenyl)amino)-5-(trifluoromethyl)pyrimidin-4-yl)-4-methyl-3,4-dihydrothieno[2,3-f][1,4]thiazepin-5(2H)-one 1,1-dioxide]: the pIC50 (as a rule, the IC50 on a negative log10 scale, so that one unit is a factor of ten) is ≥ 8.30. As for `O=C1c2sc(-c3nc(Nc4cc5c(cc4C4CC4)CNCC5)ncc3C(F)(F)F)cc2S(=O)(=O)CCN1C1CCC1` [Example 218, 4-cyclobutyl-7-(2-((7-cyclopropyl-1,2,3,4-tetrahydroisoquinolin-6-yl)amino)-5-(trifluoromethyl)pyrimidin-4-yl)-3,4-dihydrothieno[2,3-f][1,4]thiazepin-5(2H)-one 1,1-dioxide], the figure is ≥ 8.30. For `O=C1c2sc(-c3nc(Nc4cc5c(cc4C4CC4)CNCC5)ncc3C(F)(F)F)cc2S(=O)(=O)CCN1C1COC1` [Example 219, 7-(2-((7-cyclopropyl-1,2,3,4-tetrahydroisoquinolin-6-yl)amino)-5-(trifluoromethyl)pyrimidin-4-yl)-4-(oxetan-3-yl)-3,4-dihydrothieno[2,3-f][1,4]thiazepin-5(2H)-one 1,1-dioxide] the value was ≥ 8.30. For the molecule `CCc1cc2c(cc1Nc1ncc(C(F)(F)F)c(-c3cc4c(s3)C(=O)N(C3CC3)CCS4(=O)=O)n1)CNCC2` [Example 220, 4-cyclopropyl-7-(2-((6-ethyl-1,2,3,4-tetrahydroisoquinolin-7-yl)amino)-5-(trifluoromethyl)pyrimidin-4-yl)-3,4-dihydrothieno[2,3-f][1,4]thiazepin-5(2H)-one 1,1-dioxide], the negative-log IC50 (pIC50) was ≥ 8.30. As for `CCc1cc2c(cc1Nc1ncc(C(F)(F)F)c(-c3cc4c(s3)C(=O)N(C3CCC3)CCS4(=O)=O)n1)CNCC2` [Example 221, 4-cyclobutyl-7-(2-((6-ethyl-1,2,3,4-tetrahydroisoquinolin-7-yl)amino)-5-(trifluoromethyl)pyrimidin-4-yl)-3,4-dihydrothieno[2,3-f][1,4]thiazepin-5(2H)-one 1,1-dioxide], the pIC50 was ≥ 8.30.

`CCc1cc2c(cc1Nc1ncc(C(F)(F)F)c(-c3cc4c(s3)C(=O)N(C)CCS4(=O)=O)n1)CCN(CC)C2` [Example 222, 7-(2-((2,7-diethyl-1,2,3,4-tetrahydroisoquinolin-6-yl)amino)-5-(trifluoromethyl)pyrimidin-4-yl)-4-methyl-3,4-dihydrothieno[2,3-f][1,4]thiazepin-5(2H)-one 1,1-dioxide]: the pIC50 is ≥ 8.30. For `CCc1cc2c(cc1Nc1ncc(C(F)(F)F)c(-c3cc4c(s3)C(=O)N(C)CCS4(=O)=O)n1)CCN(CC1CC1)C2` [Example 223, 7-(2-((2-(cyclopropylmethyl)-7-ethyl-1,2,3,4-tetrahydroisoquinolin-6-yl)amino)-5-(trifluoromethyl)pyrimidin-4-yl)-4-methyl-3,4-dihydrothieno[2,3-f][1,4]thiazepin-5(2H)-one 1,1-dioxide] the value was ≥ 8.30; for `O=C1c2sc(-c3nc(Nc4cc5c(cc4C4CC4)CCNC5)ncc3C(F)(F)F)cc2S(=O)(=O)CCN1C1CC1` [Example 224, 4-cyclopropyl-7-(2-((6-cyclopropyl-1,2,3,4-tetrahydroisoquinolin-7-yl)amino)-5-(trifluoromethyl)pyrimidin-4-yl)-3,4-dihydrothieno[2,3-f][1,4]thiazepin-5(2H)-one 1,1-dioxide], ≥ 8.30. For the molecule `O=C1c2sc(-c3nc(Nc4cc5c(cc4C4CC4)CCNC5)ncc3C(F)(F)F)cc2S(=O)(=O)CCN1C1CCC1` [Example 225, 4-cyclobutyl-7-(2-((6-cyclopropyl-1,2,3,4-tetrahydroisoquinolin-7-yl)amino)-5-(trifluoromethyl)pyrimidin-4-yl)-3,4-dihydrothieno[2,3-f][1,4]thiazepin-5(2H)-one 1,1-dioxide], the negative-log IC50 (pIC50) is ≥ 8.30.
